Measurements: paper PMC9743128, “Phenotype-based screening rediscovered benzopyran-embedded microtubule inhibitors as anti-neuroinflammatory agents by modulating the tubulin–p65 interaction” (Experimental & Molecular Medicine, 2022)

Assays:
Format in all cases: cell-based, murine
[1] = tested on: TNF-α secretion in BV-2 cells; assay: TNF-α ELISA of culture medium after LPS; conditions: 10 μM
Protocol: BV-2 and RAW264.7 cells were treated with compounds in the absence or presence of LPS (100 ng/ml). After 24 h, TNF-α levels in the culture medium were measured using a TNF-α ELISA kit (R&D Systems; DY410) according to the manufacturer’s protocol. Briefly, capture antibodies were coated on 96-well Maxisorp Nunc-Immuno plates (Thermo; #439454) for 1 h and washed with PBS containing 0.05% Tween-20 (PBST) three times. The plates were blocked with 1% BSA-PBS for 1 h and washed with PBST three times. Culture medium was added to the 96-well plate for 1 h and washed with PBST three times. Biotinylated detection antibody was added to the 96-well plate for 1 h and washed with PBST three times. Streptavidin–horseradish peroxidase (HRP) was added to the plate for 20 min and washed with PBST three times. After 20 min of incubation with TMB substrate (Thermo; #002023), TMB oxidation was stopped by adding 2 N H2SO4. The absorbance at 450 nm, 540 nm, and 570 nm was measured using a microplate reader (BioTek; Synergy). The following formula was used to calculate the net signal: OD450nm–(OD540nm + OD570nm)/2.
Fig. 2 SB26019 has anti-inflammatory activity via the accumulation of tubulin monomers. SB26019 (10 μM for 6 h) regulated the mRNA levels (a) and protein levels (b) of downstream genes of NF-κB in BV-2 murine microglial cells more efficiently than the other known tubulin modulators (n = 3). c Both tubulin modulators (10 μM for 6 h) and transient Flag-tagged α-tubulin overexpression increased the total amount of tubulin monomers. d Quantification of the amount of tubulin polymer vs. monomer in (c). Tubulin modulators (10 μM for 6 h) and transient Flag-tagged α-tubulin overexpression proportionally regulated the NF-κB signaling pathway at the mRNA (e) and protein levels f in RAW264.7 murine macrophage cells (n = 3). Data are presented as the mean ± SD (ns, not significant, p > 0.05; *p < 0.05; **p < 0.01; ***p < 0.001).

[2] = tested on: p65 nuclear translocation in J774A.1 and RAW264.7 cells; assay: p65 nuclear translocation by immunofluorescence staining; conditions: 10 μM for 1 h, then LPS; LPS alone 80%, basal 40%
Protocol: To monitor p65 translocation, J774A.1 cells were treated with compounds for 1 h, followed by LPS (100 ng/ml) treatment for 30 min. The cells were fixed with 4% paraformaldehyde (Sigma; #158127) in PBS (w/v) for 30 min at room temperature. After washing with 1× PBS (Welgene; ML008-02) three times, the fixed cells were permeabilized with PBS containing 0.1% Triton X-100 for 10 min. The cells were washed with 1× PBS three times and then blocked with 4% bovine serum albumin (MP Biomedicals; #0216006980) in PBS (w/v) for 1 h. The cells were incubated with mouse anti-p65 antibody (Santa Cruz; sc-8008, 1:200 diluted in 1% BSA–PBS) at 4 °C overnight and washed with PBS three times. FITC-labeled goat anti-mouse IgG antibody (Abcam; ab6785, 1:200 diluted in 1% BSA–PBS) was added to the sample and incubated for 1 h at room temperature. The remaining antibodies were finally washed three times with PBS. Nuclei were stained with Hoechst 33342 (Thermo; #62249). The cellular p65 proteins were imaged by fluorescence microscopy (GE Healthcare; Delta Vision) and quantified by the line profiling method.
During activation of the NF-κB signaling pathway, IκB is phosphorylated and degraded by proteasomes. The released p65 from IκB is translocated to the nucleus, inducing the transcription of target genes for inflammatory responses. Therefore, we monitored the translocation of p65 upon SB26019 treatment in J774A.1 and RAW264.7 murine macrophage cells stained with fluorescently labeled antibodies. […]

[3] = molecular target: T1, p65–α-tubulin interaction (Mus musculus, UniProt P05213+P99024); assay: Immunoprecipitation of p65, IκB and α-tubulin; conditions: 1 h treatment, 10 μM
T1 construct: endogenous in cells
T1 sequence (P05213 whole entry): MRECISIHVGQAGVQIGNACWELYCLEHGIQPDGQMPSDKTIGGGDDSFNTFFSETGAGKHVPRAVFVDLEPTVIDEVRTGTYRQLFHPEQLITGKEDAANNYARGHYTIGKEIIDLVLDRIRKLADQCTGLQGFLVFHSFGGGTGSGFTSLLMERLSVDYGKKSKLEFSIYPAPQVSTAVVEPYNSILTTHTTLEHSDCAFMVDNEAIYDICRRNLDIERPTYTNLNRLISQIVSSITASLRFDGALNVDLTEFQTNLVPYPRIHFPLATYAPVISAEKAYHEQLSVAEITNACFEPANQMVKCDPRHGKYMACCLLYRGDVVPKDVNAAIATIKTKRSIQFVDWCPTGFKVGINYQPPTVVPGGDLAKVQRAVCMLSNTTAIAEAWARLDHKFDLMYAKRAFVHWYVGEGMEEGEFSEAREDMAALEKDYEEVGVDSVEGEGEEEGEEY
T1 sequence (P99024 whole entry): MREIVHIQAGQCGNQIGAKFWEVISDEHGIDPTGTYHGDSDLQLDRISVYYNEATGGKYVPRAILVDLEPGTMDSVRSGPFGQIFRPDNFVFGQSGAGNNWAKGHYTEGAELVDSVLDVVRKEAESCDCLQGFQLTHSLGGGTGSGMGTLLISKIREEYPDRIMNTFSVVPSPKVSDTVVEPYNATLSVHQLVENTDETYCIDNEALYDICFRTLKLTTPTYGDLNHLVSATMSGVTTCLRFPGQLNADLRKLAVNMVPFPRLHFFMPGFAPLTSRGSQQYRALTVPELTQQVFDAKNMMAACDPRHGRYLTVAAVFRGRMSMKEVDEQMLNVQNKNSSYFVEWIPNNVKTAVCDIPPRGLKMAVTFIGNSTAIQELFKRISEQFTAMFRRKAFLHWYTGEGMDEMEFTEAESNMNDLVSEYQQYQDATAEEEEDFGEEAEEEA
Protocol: After a 1-h incubation in the absence or presence of SB26019, cells were harvested and lysed for 1 h on ice with IP lysis buffer {50 mM Tris–HCl pH 8.0 (Acros; #77-86-1), 200 mM NaCl, 0.5% NP40 (Sigma; #I8896), and 1× protease inhibitor cocktail (Roche; #11873580001)}. The protein concentration was measured using a bicinchoninic acid (BCA) protein assay kit (Thermo; #23225). Then, 150 μg of the lysates were incubated with 1.5 μg of anti-p65 antibody (Abcam; ab16502), anti-IκB antibody (CST; #4814), or α-tubulin antibody (CST; #3873) at 4 °C overnight. Subsequently, the proteins of interest were precipitated using protein A and G beads (Santa Cruz; sc-2001, sc-2002). Samples were analyzed with western blotting using anti-p65, IκB, and α-tubulin primary antibodies.
To understand the inhibitory mechanism of p65 nuclear translocation by SB26019, the expression levels of p65, IκB, and tubulin monomers were monitored upon SB26019 treatment in murine macrophage cells. […] Additionally, nuclear translocation of p65 was inhibited by SB26019 treatment despite an increase in phospho-IκB and a decrease in total IκB (Fig. 3e). […] Consequently, IκB is released from p65 and degraded by the proteasome. […] To test this hypothesis, we monitored protein‒protein interactions among p65, IκB, and tubulin with immunoprecipitation. […]

COc1ccc2c(c1O)OC(C)(C)C=C2c1cccc2c1oc1ccccc12 [Compound 8]
TNF-α levels compared to that of the DMSO control [1]: < 50%
p65 nuclear translocation in the presence of LPS [2]: < 60%
Interaction between p65 and α-tubulin [3]: increased
